# Assay results as given in US11912679B2, “Aryl alkynamide derivatives” (Astellas Pharma, Inc., priority 2022, dated 2024).
# Test system: IRF pathway of THP-1
# Test: Test on the activity of IRF pathway of THP-1 (THP1-Dual reporter cells stimulated with 2'3'-cGAMP)
# Type: cell-based
# Settings: Homo sapiens, PMA-treated, 2'3'-cGAMP 5 ug/mL, QUANTI-Luc readout, read-out: IC50 of inhibition of the activity of IRF pathway
# Procedure: 0.3 uM of PMA (phorbol myristate acetate, SIGMA, P1585) was added to THP1-Dual™ cells (NF-κB-SEAP IRF-Luc Reporter Monocytes, Invivogen, thpd-nfis), and the cells were cultured at 37° C. for 1 day in RPMI1640 with 10% Fetal Bovine Serum (FBS). A compound with a known concentration was added, and the cells were incubated at room temperature for 1 hour. Mammalian (non-canonical) CDN, cyclic [G(2′,5′)pA(3′,5′)p] (2′3′-cGAMP, Invivogen, tlrl-nacga23) was added to a final concentration of 5 ug/mL, and the cells were cultured at 37° C. On the following day, QUANTI-Luc™ (Secreted luciferase detection medium, Invivogen, rep-qlc) was added to the culture solution and the activity of IRF pathway was measured using a microplate reader. The inhibition ratio at each concentration was determined, where the activity of IRF pathway with no addition of the test compound or 2′3′-cGAMP was defined as 100% inhibition and the activity of IRF pathway with no addition of the test compound and with addition of 2′3′-cGAMP was defined as 0% inhibition. The IC50 value was calculated by sigmoid […] model non-linear regression analysis.
row,IC50,Compound
1,91 nM,O=C(C#Cc1ccc(-c2ccccc2OC(F)(F)F)c(C(F)(F)F)c1)N1CC(O)C1 [Example 77]
2,83 nM,Cn1cc(N(CCO)C(=O)C#Cc2ccc(-c3ccccc3)c(C(F)(F)F)c2)cn1 [Example 55]
3,4820 nM,CN1CCN(C(=O)C#Cc2cnn(-c3ccccc3)c2C(F)(F)F)CC1 [Example 6]
4,381 nM,O=C(C#Cc1ccc(-c2cccc(OC(F)F)c2)c(C(F)(F)F)c1)N[C@H]1COC[C@@H]1O [Example 57]
5,1210 nM,CN(C)c1cc(C#CC(=O)N2C[C@@H](O)[C@@H](O)C2)ccc1-c1ccccc1C(F)(F)F [Example 110]
6,95 nM,NC(=O)[C@@H]1C[C@H](O)CN1C(=O)C#Cc1ccc(-c2ccccc2)c(C(F)(F)F)c1 [Example 28]
7,442 nM,O=C(C#Cc1ccc(-c2ccccc2)c(C(F)(F)F)c1)N(CCO)C1CC1 [Example 52]
8,1440 nM,"CN1CCN(C(=O)C#Cc2cnn(-c3ccc(C(F)(F)F)cc3)c2)CC1 [Example 95, 1-(4-methylpiperazin-1-yl)-3-{1-[4-(trifluoromethyl)phenyl]-1H-pyrazol-4-yl}prop-2-yn-1-one]"
9,242 nM,"C#CCOc1ccccc1-c1ccc(C#CC(=O)N2C[C@@H](O)[C@@H](O)C2)cc1C(F)(F)F [Example 129, 1-[(3R,4S)-3,4-dihydroxypyrrolidin-1-yl]-3-{2′-[(prop-2-yn-1-yl)oxy]-2-(trifluoromethyl)[1,1′-biphenyl]-4-yl}prop-2-yn-1-one]"
10,3100 nM,COc1ncc(-c2ccc(C#CC(=O)N3C[C@@H](O)[C@@H](O)C3)cc2C(F)(F)F)cn1 [Example 122]
11,2060 nM,CN1CCN(C(=O)C#Cc2cn(-c3ccccc3)nc2C(F)(F)F)CC1 [Example 7]
12,73 nM,O=C(C#Cc1ccc(-c2ccccc2OC(F)(F)F)c(C(F)(F)F)c1)NC[C@H](O)CO [Example 75]
13,1050 nM,COc1cc(C#CC(=O)N2C[C@@H](O)[C@@H](O)C2)ccc1-c1ccccc1C(F)(F)F [Example 111]
14,51 nM,O=C(C#Cc1ccc(-c2ccccc2OC(F)(F)F)c(C(F)(F)F)c1)N1CC(O)(CO)C1 [Example 78]
15,256 nM,O=C(C#Cc1ccc(-c2cccc(OC(F)F)c2)c(C(F)(F)F)c1)N1C[C@H](O)[C@@H](O)C1 [Example 56]
16,8040 nM,O=C(C#Cc1cnn(-c2ccc(F)cc2)c1C(F)(F)F)N1C[C@@H](O)[C@@H](O)C1 [Example 86]
17,64 nM,O=C(C#Cc1ccc(-c2ccccc2OC(F)(F)F)c(C(F)(F)F)c1)N[C@@H]1COC[C@H]1O [Example 68]
18,578 nM,"O=C(C#Cc1ccc(-c2ccccc2C(F)(F)F)cc1)N1C[C@@H](O)[C@@H](O)C1 [Example 131, 1-[(3R,4S)-3,4-dihydroxypyrrolidin-1-yl]-3-[2′-(trifluoromethyl)[1,1′-biphenyl]-4-yl]prop-2-yn-1-one]"
19,539 nM,O=C(C#Cc1ccc(-c2ccc(OC(F)F)cc2)c(C(F)(F)F)c1)N[C@H]1COC[C@H]1O [Example 80]
20,402 nM,O=C(C#Cc1ccc(-c2ccccc2)c(C(F)(F)F)c1)N1CC[C@H](O)C1 [Example 103]
21,351 nM,O=C(C#Cc1ccc(-c2ccccc2)c(C(F)(F)F)c1)NC(CO)CO [Example 39]

row,IC50,Compound
1,919 nM,O=C(O)CCCN1CCN(C(=O)C#Cc2ccc(-c3ccccc3)c(C(F)(F)F)c2)CC1 [Example 93]
2,444 nM,O=C(C#Cc1ccc(-c2ccccc2)c(C(F)(F)F)c1)N[C@@H]1COC[C@@H]1O [Example 59]
3,372 nM,CC(C)Oc1cc(C#CC(=O)N2C[C@@H](O)[C@@H](O)C2)ccc1-c1ccccc1C(F)(F)F [Example 126]
4,1790 nM,O=C(C#Cc1ccc(C2CCOCC2)c(C(F)(F)F)c1)N1C[C@@H](O)[C@@H](O)C1 [Example 104]
5,190 nM,O=C(C#Cc1ccc(-c2ccccc2OC(F)(F)F)c(C(F)(F)F)c1)NCCO [Example 69]
6,88 nM,O=C(C#Cc1ccc(-c2ccccc2)c(C(F)(F)F)c1)N1CCS(=O)(=O)CC1 [Example 38]
7,441 nM,O=C(C#Cc1ccc(-c2cccc(OC(F)F)c2)c(C(F)(F)F)c1)N[C@@H]1COC[C@H]1O [Example 58]
8,611 nM,O=C(C#Cc1ccc(-c2ccc(OC(F)F)cc2)c(C(F)(F)F)c1)N1C[C@@H](O)[C@H](O)C1 [Example 61]
9,115 nM,CS(=O)(=O)NCCNC(=O)C#Cc1ccc(-c2ccccc2)c(C(F)(F)F)c1 [Example 31]
10,229 nM,O=C(C#Cc1ccc(-c2ccccc2)c(C(F)(F)F)c1)N1CCN(C2CCS(=O)(=O)C2)CC1 (centres unmarked) [Example 16]
11,471 nM,"O=C(C#Cc1ccc(-c2ccccc2)c(C(F)(F)F)c1)Nc1cccc(C(=O)O)c1 [Example 90, 3-({3-[2-(trifluoromethyl)[1,1′-biphenyl]-4-yl]prop-2-ynoyl}amino)benzoic acid]"
12,322 nM,CS(=N)(=O)CCNC(=O)C#Cc1ccc(-c2ccccc2)c(C(F)(F)F)c1 (centres unmarked) [Example 125]
13,529 nM,"CN[C@@H]1CCN(C(=O)C#Cc2ccc(-c3ccccn3)c(C(F)(F)F)c2)C1 [Example 127, 1-[(3R)-3-(methylamino)pyrrolidin-1-yl]-3-[4-(pyridin-2-yl)-3-(trifluoromethyl)phenyl]prop-2-yn-1-one]"
14,231 nM,NC(=O)CNC(=O)C#Cc1ccc(-c2ccccc2)c(C(F)(F)F)c1 [Example 49]
15,233 nM,O=C(C#Cc1ccc(-c2ccccc2)c(C(F)(F)F)c1)N[C@@H]1COC[C@H]1O [Example 17]
16,121 nM,NC(=O)[C@@H]1CCCN1C(=O)C#Cc1ccc(-c2ccccc2)c(C(F)(F)F)c1 [Example 24]
17,125 nM,"N[C@H]1CCN(C(=O)C#Cc2ccc(-c3ccccc3)c(C(F)(F)F)c2)C1 [Example 100, 1-[(3S)-3-aminopyrrolidin-1-yl]-3-[2-(trifluoromethyl)[1,1′-biphenyl]-4-yl]prop-2-yn-1-one monooxalate]"
18,5260 nM,"NC(=O)c1cc(C#CC(=O)N2C[C@@H](O)[C@@H](O)C2)ccc1-c1ccccc1C(F)(F)F [Example 119, 4-{3-[(3R,4S)-3,4-dihydroxypyrrolidin-1-yl]-3-oxoprop-1-yn-1-yl}-2′-(trifluoromethyl)[1,1′-biphenyl]-2-carboxamide]"
19,216 nM,NC(=O)[C@H]1CCN(C(=O)C#Cc2ccc(-c3ccccc3)c(C(F)(F)F)c2)C1 [Example 27]
20,190 nM,N[C@@H]1CCN(C(=O)C#Cc2ccc(-c3ccccc3)c(C(F)(F)F)c2)C1 [Example 101]
21,731 nM,"O=C(C#Cc1ccc(-c2ccccc2C(F)(F)F)c(CO)c1)N1C[C@@H](O)[C@@H](O)C1 [Example 133, 1-[(3R,4S)-3,4-dihydroxypyrrolidin-1-yl]-3-[2-(hydroxymethyl)-2′-(trifluoromethyl)[1,1′-biphenyl]-4-yl]prop-2-yn-1-one]"

row,IC50,Compound
1,842 nM,CN1CC2(C1)CN(C(=O)C#Cc1ccc(-c3ccccc3)cc1)C2 [Example 102]
2,244 nM,"NC(=O)[C@@H]1CCN(C(=O)C#Cc2ccc(-c3ccccc3)c(C(F)(F)F)c2)C1 [Example 20, (3R)-1-{3-[2-(trifluoromethyl)[1,1′-biphenyl]-4-yl]prop-2-ynoyl}pyrrolidine-3-carboxamide]"
3,263 nM,O=C(C#Cc1ccc(-c2ccccc2)c(C(F)(F)F)c1)N1CC[C@@H](O)C1 [Example 108]
4,1390 nM,CN1CCN(C(=O)C#Cc2ccc(-c3ccccc3)cc2)CC1 [Example 19]
5,178 nM,CS(=O)(=O)NCCCNC(=O)C#Cc1ccc(-c2ccccc2)c(C(F)(F)F)c1 [Example 32]
6,339 nM,O=C(C#Cc1ccc(-c2ccccc2)c(C(F)(F)F)c1)NCCNS(=O)(=O)CCO [Example 114]
7,91 nM,O=C(C#Cc1ccc(-c2ccccc2)c(C(F)(F)F)c1)N(CCO)c1ccccc1 [Example 48]
8,91 nM,NC(=O)[C@H]1CCCN1C(=O)C#Cc1ccc(-c2ccccc2)c(C(F)(F)F)c1 [Example 23]
9,2830 nM,O=C(C#Cc1ccc(-c2ccccc2C(F)(F)F)c2ncccc12)N1C[C@@H](O)[C@@H](O)C1 [Example 117]
10,528 nM,O=C(C#Cc1ccc(-c2ccccc2)c(C(F)(F)F)c1)N[C@H]1COC[C@H]1O [Example 60]
11,2570 nM,COC1CCN(Cc2cc(C#CC(=O)NC[C@H](O)CO)ccc2-c2ccccc2)CC1 [Example 98]
12,112 nM,O=C(C#Cc1ccc(-c2ccccc2C(F)(F)F)c(Cl)c1)N1C[C@@H](O)[C@@H](O)C1 [Example 109]
13,550 nM,CC(C)N(CCO)C(=O)C#Cc1ccc(-c2ccccc2)c(C(F)(F)F)c1 [Example 53]
14,374 nM,O=C(C#Cc1ccc(-c2ccccc2)c(C(F)(F)F)c1)N1CCN(C2COC2)CC1 [Example 14]
15,7750 nM,CN1CCN(C(=O)C#Cc2ccc(-n3cccn3)cc2)CC1 [Example 8]
16,99 nM,O=C(C#Cc1ccc(-c2ccccc2OC(F)(F)F)c(C(F)(F)F)c1)N[C@H]1COC[C@H]1O [Example 73]
17,422 nM,O=C(C#Cc1ccc(-c2ccc(OC(F)(F)F)cc2)c(C(F)(F)F)c1)NC[C@@H](O)CO [Example 40]
18,422 nM,O=C(C#Cc1ccc(-c2ccc(OC(F)F)cc2)c(C(F)(F)F)c1)N[C@@H]1COC[C@H]1O [Example 63]
19,48 nM,NS(=O)(=O)c1cccc(NC(=O)C#Cc2ccc(-c3ccccc3)c(C(F)(F)F)c2)c1 [Example 50]
20,340 nM,O=C(C#Cc1ccc(-c2cccc(OC(F)F)c2)c(C(F)(F)F)c1)N1C[C@@H](O)[C@H](O)C1 [Example 65]
